# No end group written: not given here.
# Experiments:
# murine melanoma B16OVA [1] = experiment: Reduction of tumor size, monotherapy or combination with immunological control point immunotherapies (Example 4); type: in vivo, mice; details: s.c. B16OVA
# Description: For the study of the reduction of the tumor in adults and increasing the survival making use of different immunotherapies with immunological control points and their comparison as a monotherapy or combination therapy with that of the invention, 5×10^5 cells of murine melanoma B16OVA were inoculated in a subcutaneous manner just like in FIG. 1 (Example 2). Following 7 days post-inoculation, 50 μg/ml of the therapy of the invention were inoculated in the tumors for 7 days as a monotherapy, GNP-LLO91-99 (gluconanoparticles synthesized with the peptide from listeriolysin O of Listeria monocytogenes, LLO91-99), or in combination with the following immunotherapies with immunological control points, anti-CTLA-4 or anti-PD-1 in a dose of 100 μg/mouse every 2 days up to a total of 7 days or no particle (NT).
# Following this treatment, the mice were sacrifice at different times following the therapies, 14, 21 or 30 days in total. The results are shown in FIG. 3A following the sacrifice of the mice, recovery of the tumors and measuring of their size with a gauge. In another similar experiment, the mice are not sacrificed and the effect of the therapies is evaluated in the survival of the mice.
# murine melanoma B16OVA [2] = experiment: Prevention of tumor growth, intraperitoneal melanoma after preventive treatment (Example 5); type: in vivo, mice
# Description: For the comparative study of the prevention of tumor growth in adults between the therapy of the invention and known anti-tumor therapies, the following therapies (50 μg/ml) were inoculated in female adults of the C57BL/6 strain in an intraperitoneal manner: LLO91-99 (only peptide from listeriolysin O of Listeria monocytogenes, LLO91-99), GNP (empty gluconanoparticles), GNP-LLO91-99 (gluconanoparticles synthesized with the peptide from listeriolysin O of Listeria monocytogenes, LLO91-99), GNP-GAPDH1-22 (nanoparticles synthesized with the peptide from glyceraldehyde-3-phosphate dehydrogenase of Listeria monocytogenes, GAPDH1-22) or saline (NT).
# Following 7 days preventative post-treatment, the tumors were established following inoculation with 5×10^6 cells of murine melanoma B16OVA in an intraperitoneal manner. Following 7 days post-established of the tumor, the mice were sacrificed and the recovered tumors were measured by means of a gauge and the tumors were analyzed by means of immunohistochemical staining. The results of the reduction of the tumor growth and their intraperitoneal position are shown in FIG. 4A and FIG. 4B and the results of the analysis of the immunohistochemical staining in FIG. 4C.
# A-375, human melanoma [3] = experiment: In vitro apoptosis-necrosis, flow cytometry annexin V-APC / 7-ADD; type: cell-based; details: 10 μg/ml, 16 hours, A375
# Description: (§1) 1.—Tumor cells. The cells used are: Hepa1-6, murine hepatocarcinoma, TC-1, murine lung carcinoma; B16F10, murine melanoma; A-375, human melanoma; hamster melanoma (ATCC).
# (§2) 2.—In vitro apoptosis-necrosis. The different tumor cells (1×10^6 cells) are treated with 10 μg/ml of the GNP-LLO91-99 gold nanoparticles in culture plates, 16 hours prior to the apoptosis-necrosis analysis, including cells of each type of tumor without treatment with the gold nanoparticles (control). Following washing, the cells are analyzed by means of flow cytometry using two specific products, annexin V conjugated with the APC fluorochrome and the fluorescent marker for binding to DNA, 7-ADD (7-amino-actinomycin D). Apoptosis and necrosis in the tumor cells are analyzed by means of the differential marking with annexin V-APC and 7-ADD expressed as percentages. While the necrosis is indicated as the percentage of cells doubly marked with annexin V-APC and 7-ADD, the apoptosis is expressed as the percentage of cells marked only with annexin V.
# B16F10, murine melanoma [4] = experiment: as above; type: cell-based; details: 10 μg/ml, 16 hours
# Description: as §1, §2
# [5] = test system: Hepa1-6, murine hepatocarcinoma; experiment: as above; type: cell-based; details: 10 μg/ml, 16 hours
# Description: as §1, §2
# [6] = test system: TC-1, murine lung carcinoma; experiment: as above; type: cell-based; details: 10 μg/ml, 16 hours
# Description: as §1, §2
# A-375, human melanoma [7] = experiment: In vitro activation cell markers, flow cytometry; type: cell-based; details: 10 μg/ml pre-treatment, A375
# Description: as §1
# (§3) 3.—Study of in vitro activation cell markers. The markers of the cell surface of the different tumor cells (1×10^6 cells) that are pre-treated or that are not pre-treated with 10 μg/ml of the GNP-LLO91-99 gold nanoparticles similar to the apoptosis process are analyzed by means of flow cytometry using the following antibodies (Miltenyi Biotech): anti-CD86-V450, anti-CD80-FITC, anti-MHC-II-APC, CD11c-PE, anti-NCAM-PE, anti-PD-1-V450.
# B16F10, murine melanoma [8] = experiment: In vitro activation cell markers, flow cytometry; type: cell-based; details: 10 μg/ml pre-treatment
# Description: as §1, §3
# [9] = test system: hepatocarcinoma (Hepa 1-6); experiment: In vitro activation cell markers, flow cytometry; type: cell-based, murine; details: 10 μg/ml pre-treatment
# Description: as §1, §3
# lung cancer cells (TC-1) = experiment: In vitro activation cell markers, flow cytometry; type: cell-based, murine; details: 10 μg/ml pre-treatment
# Description: as §1, §3
# glioblastoma (RG-1) = experiment: In vitro activation cell markers, flow cytometry; type: cell-based; details: 10 μg/ml pre-treatment
# Description: as §3
# ovary tumor cells (CHO) = experiment: In vitro activation cell markers, flow cytometry; type: cell-based, hamster; details: 10 μg/ml pre-treatment
# Description: as §1, §3
# hepatocarcinomas = experiment: Subcutaneous tumor transplant model (Example 9); type: in vivo, mice; details: subcutaneous transplants, C57BL/6, 50 μg/ml in-situ for 7 days
# Description: as §1
# (§4) 4.—Subcutaneous tumor transplant model. 8-12 week old females of the strain C57BL/6 are inoculated in the right flank with 1×10^5 tumor cells for 7 days in order to develop a measurable tumor (4-6 mm thickness). Subsequently, the tumors are inoculated in-situ with 50 μg/ml of the GNP-LLO91-99 gold nanoparticles for 7 days. The size of the tumors is measured with a gauge and is expressed in volume using the following formula: (length×(width)^2)/2.
# lung cancer cells = experiment: Subcutaneous tumor transplant model (Example 9); type: in vivo, mice; details: subcutaneous transplants, C57BL/6, 50 μg/ml in-situ for 7 days
# Description: as §1, §4
# melanomas = experiment: Subcutaneous tumor transplant model (Example 9); type: in vivo, mice; details: subcutaneous transplants, C57BL/6, 50 μg/ml in-situ for 7 days
# Description: as §1, §4
# ovary tumor cells = experiment: Subcutaneous tumor transplant model (Example 9); type: in vivo, mice; details: subcutaneous transplants, C57BL/6, 50 μg/ml in-situ for 7 days
substance,measurement,setting,value
"GNP-LLO91-99: gluconanoparticles synthesized with the peptide from listeriolysin O of Listeria monocytogenes, LLO91-99 (GYKDGNEYI; also: gold glyconanoparticle conjugate; UniProt P13128 91-99, looked up, fragment)",tumor regression,"murine melanoma B16OVA [1]; combination therapy with anti-CTLA-4 (100 μg/mouse every 2 days), at 14 days",up to 90%
same,tumor regression,"murine melanoma B16OVA [1]; combination therapy with anti-CTLA-4 (100 μg/mouse every 2 days), at 30 days",up to 90%
same,tumor regression,"murine melanoma B16OVA [1]; combination with anti-PD-1 (100 μg/mouse every 2 days), at 14 days",100%
same,tumor regression,"murine melanoma B16OVA [1]; combination with anti-PD-1 (100 μg/mouse every 2 days), at 30 days",100%
same,tumor regression,"murine melanoma B16OVA [1]; monotherapy, 50 μg/ml in the tumors, 7 days",80%
same,tumor regression,"murine melanoma B16OVA [1]; monotherapy, 50 μg/ml in the tumors, at 14 days",90%
same,tumor regression,"murine melanoma B16OVA [1]; monotherapy, 50 μg/ml in the tumors, at 30 days",90%
same,prevention of tumor growth,"murine melanoma B16OVA [2]; 50 μg/ml intraperitoneal 7 days before i.p. B16OVA, adult C57BL/6, tumors measured 7 days after establishment",90%
same,necrotizing foci in the melanomas,murine melanoma B16OVA [2]; immunohistochemical staining of recovered peritoneal tumors,60%
same,position of the tumor / spreading to other organs,murine melanoma B16OVA [2]; intraperitoneal B16OVA after preventive treatment,positioned intraperitoneally preventing its spreading to other organs
same,effect of inducing apoptosis,"A-375, human melanoma [3]",much more pronounced
same,effect of inducing apoptosis,"B16F10, murine melanoma [4]",much more pronounced
same,effect of inducing apoptosis,[5],much more pronounced
same,induction of tumor apoptosis and necrosis,[5],induce both tumor apoptosis and necrosis
same,effect of inducing apoptosis,[6],much more pronounced
same,induction of tumor apoptosis and necrosis,[6],induce both tumor apoptosis and necrosis
same,expression of immune cell activation markers,"A-375, human melanoma [7]","boosted the expression of various activation markers such as MHC-I, MHC-II, CD80 and PD-1"
same,expression of immune cell activation markers,"B16F10, murine melanoma [8]","boosted the expression of various activation markers such as MHC-I, MHC-II, CD80 and PD-1"
same,expression of immune cell activation markers,[9]; Hepa 1-6,"boosted the expression of various activation markers such as MHC-I, MHC-II, CD80 and PD-1"
same,expression of PD-1,[9]; hepatocarcinomas,high expression of PD-1
same,expression of immune cell activation markers,lung cancer cells (TC-1),only boosted the expression of MHC-I
same,expression of MHC-I,glioblastoma (RG-1),inhibition
same,expression of MHC-II,glioblastoma (RG-1),no variation
same,expression of NCAM-1,glioblastoma (RG-1),no variation
same,expression of immune cell activation markers,glioblastoma (RG-1),no induction of expression of activation markers
same,expression of immune cell activation markers,ovary tumor cells (CHO),did not undergo a variation in any of the markers analyzed
same,in vivo inhibitory effect of the tumor,hepatocarcinomas,inhibitory effect of the tumor is also observed in vivo
same,in vivo inhibitory effect of the tumor,lung cancer cells,inhibitory effect of the tumor is also observed in vivo
same,in vivo inhibitory effect of the tumor,melanomas,inhibitory effect of the tumor is also observed in vivo
same,in vivo inhibitory effect of the tumor,ovary tumor cells,does not cause any effect
